The source made the active and inactive calls. The rule behind the calls is not given here.
Columns and labels:
Mus musculus [1] = assay: Anticonvulsant activity in Mus musculus albino (mouse) assessed as protection against ip picrotoxin-induced seizures at 300 mg/kg, ip after 4 hr; type: functional, organism-based; parameters: dose 300 mg/kg
Mus musculus [2] = assay: Anticonvulsant activity in Mus musculus albino (mouse) assessed as protection against ip picrotoxin-induced seizures at 300 mg/kg, ip after 0.5 hr; type: functional, organism-based; parameters: dose 300 mg/kg
Mus musculus [3] = assay: Anticonvulsant activity in Mus musculus albino (mouse) assessed as protection against subcutaneous strychnine-induced seizures at 300 mg/kg, ip after 4 hr; type: functional, organism-based; parameters: dose 300 mg/kg
Mus musculus [4] = assay: Anticonvulsant activity in Mus musculus albino (mouse) assessed as protection against subcutaneous strychnine-induced seizures at 300 mg/kg, ip after 0.5 hr; type: functional, organism-based; parameters: dose 300 mg/kg
Mus musculus [5] = assay: Anticonvulsant activity in Mus musculus albino (mouse) assessed as protection against subcutaneous pentylenetetrazole-induced seizures at 300 mg/kg, ip after 4 hr; type: functional, organism-based; parameters: dose 300 mg/kg
Mus musculus [6] = assay: Anticonvulsant activity in Mus musculus albino (mouse) assessed as protection against subcutaneous pentylenetetrazole-induced seizures at 300 mg/kg, ip after 0.5 hr; type: functional, organism-based; parameters: dose 300 mg/kg
Mus musculus [7] = assay: Anticonvulsant activity in Mus musculus albino (mouse) assessed as protection against maximal electroshock-induced seizures at 300 mg/kg, ip after 0.5 hr; type: functional, organism-based; parameters: dose 300 mg/kg
Mus musculus [8] = assay: Neurotoxicity in Mus musculus albino (mouse) assessed as motor impairment at 300 mg/kg, ip after 4 hr by rotorod test; type: toxicity, organism-based; parameters: dose 300 mg/kg, route intraperitoneal; details: in vivo
Mus musculus [9] = assay: Neurotoxicity in Mus musculus albino (mouse) assessed as motor impairment at 300 mg/kg, ip after 0.5 hr by rotorod test; type: toxicity, organism-based; parameters: dose 300 mg/kg, route intraperitoneal; details: in vivo
Mus musculus [10] = assay: Anticonvulsant activity in ip dosed Mus musculus albino (mouse) assessed as protection against ip picrotoxin-induced seizures after 4 hr; type: functional; details: read-out: MED
Mus musculus [11] = assay: Anticonvulsant activity in ip dosed Mus musculus albino (mouse) assessed as protection against ip picrotoxin-induced seizures after 0.5 hr; type: functional; details: read-out: MED
Mus musculus [12] = assay: Anticonvulsant activity in ip dosed Mus musculus albino (mouse) assessed as protection against subcutaneous strychnine-induced seizures after 4 hr; type: functional; details: read-out: MED
Mus musculus [13] = assay: Anticonvulsant activity in ip dosed Mus musculus albino (mouse) assessed as protection against subcutaneous pentylenetetrazole-induced seizures after 4 hr; type: functional; details: read-out: MED
Mus musculus [14] = assay: Anticonvulsant activity in ip dosed Mus musculus albino (mouse) assessed as protection against subcutaneous pentylenetetrazole-induced seizures after 0.5 hr; type: functional; details: read-out: MED
Mus musculus [15] = assay: Anticonvulsant activity in ip dosed Mus musculus albino (mouse) assessed as protection against maximal electroshock-induced seizures after 0.5 hr; type: functional; details: read-out: MED
Mus musculus [16] = assay: Anticonvulsant activity in ip dosed Mus musculus albino (mouse) assessed as protection against subcutaneous strychnine-induced seizures after 0.5 hr; type: functional; details: read-out: MED
[17] = Neurotoxicity in ip dosed Mus musculus albino (mouse) assessed as motor impairment after 0.5 hr by rotorod test; type: toxicity, organism-based; details: in vivo
[18] = Neurotoxicity in ip dosed Mus musculus albino (mouse) assessed as motor impairment after 4 hr by rotorod test; type: toxicity, organism-based; details: in vivo

O=C1NC(=O)C(c2ccccc2)(c2ccccc2)N1
Activity (Mus musculus [1]): inactive
Activity (Mus musculus [2]): inactive
Activity (Mus musculus [3]): inactive
Activity (Mus musculus [4]): inactive
Activity (Mus musculus [5]): inactive
Activity (Mus musculus [6]): inactive
Activity (Mus musculus [7]): inactive

CCc1ccc(NC(=O)CCCN2C(=O)c3ccccc3C2=O)cc1
Activity (Mus musculus [8]): Non-toxic
Activity (Mus musculus [9]): Non-toxic
minimal effective dose (Mus musculus [10]): 100 mg/kg
minimal effective dose (Mus musculus [11]): 100 mg/kg
minimal effective dose (Mus musculus [12]): 100 mg/kg
Activity (Mus musculus [4]): inactive
minimal effective dose (Mus musculus [13]): 300 mg/kg
minimal effective dose (Mus musculus [14]): 100 mg/kg
Activity (Mus musculus [7]): inactive

CCC1(C)CC(=O)NC1=O (centres undefined) [ETHOSUXIMIDE]
Activity (Mus musculus [8]): Non-toxic
Activity (Mus musculus [9]): Non-toxic
Activity (Mus musculus [1]): inactive
Activity (Mus musculus [2]): inactive
Activity (Mus musculus [3]): inactive
Activity (Mus musculus [4]): inactive
Activity (Mus musculus [5]): inactive
Activity (Mus musculus [6]): inactive
minimal effective dose (Mus musculus [15]): 300 mg/kg

Cc1ccc(NC(=O)CCCN2C(=O)c3ccccc3C2=O)cc1
Activity (Mus musculus [8]): Non-toxic
Activity (Mus musculus [9]): Non-toxic
Activity (Mus musculus [1]): inactive
minimal effective dose (Mus musculus [11]): 300 mg/kg
Activity (Mus musculus [3]): inactive
Activity (Mus musculus [4]): inactive
minimal effective dose (Mus musculus [13]): 100 mg/kg
Activity (Mus musculus [6]): inactive
Activity (Mus musculus [7]): inactive

O=C(CCCN1C(=O)c2ccccc2C1=O)Nc1ccc(I)cc1
Activity (Mus musculus [8]): Non-toxic
Activity (Mus musculus [9]): Non-toxic
Activity (Mus musculus [1]): inactive
Activity (Mus musculus [2]): inactive
Activity (Mus musculus [3]): inactive
minimal effective dose (Mus musculus [16]): 100 mg/kg
Activity (Mus musculus [5]): inactive
Activity (Mus musculus [6]): inactive
Activity (Mus musculus [7]): inactive

O=C(CCCN1C(=O)c2ccccc2C1=O)Nc1ccc(Br)cc1
Activity (Mus musculus [8]): Non-toxic
MTD at 0.5 h [17]: 100 mg/kg
minimal effective dose (Mus musculus [10]): 300 mg/kg
minimal effective dose (Mus musculus [11]): 100 mg/kg
Activity (Mus musculus [3]): inactive
Activity (Mus musculus [4]): inactive
Activity (Mus musculus [5]): inactive
minimal effective dose (Mus musculus [14]): 30 mg/kg
Activity (Mus musculus [7]): inactive

O=C(CCCN1C(=O)c2ccccc2C1=O)Nc1ccc(F)cc1
Activity (Mus musculus [8]): Non-toxic
Activity (Mus musculus [9]): Non-toxic
Activity (Mus musculus [1]): inactive
minimal effective dose (Mus musculus [11]): 300 mg/kg
Activity (Mus musculus [3]): inactive
minimal effective dose (Mus musculus [16]): 300 mg/kg
Activity (Mus musculus [5]): inactive
Activity (Mus musculus [6]): inactive
Activity (Mus musculus [7]): inactive

O=C(CCCN1C(=O)c2ccccc2C1=O)Nc1ccc(Cl)cc1
Activity (Mus musculus [8]): Non-toxic
Activity (Mus musculus [9]): Non-toxic
Activity (Mus musculus [1]): inactive
minimal effective dose (Mus musculus [11]): 300 mg/kg
minimal effective dose (Mus musculus [12]): 300 mg/kg
minimal effective dose (Mus musculus [16]): 100 mg/kg
Activity (Mus musculus [5]): inactive
Activity (Mus musculus [6]): inactive
Activity (Mus musculus [7]): inactive

O=C(CCCN1C(=O)c2ccccc2C1=O)Nc1ccc(F)cc1F
Activity (Mus musculus [8]): Non-toxic
Activity (Mus musculus [9]): Non-toxic
Activity (Mus musculus [1]): inactive
minimal effective dose (Mus musculus [11]): 300 mg/kg
Activity (Mus musculus [3]): inactive
minimal effective dose (Mus musculus [16]): 100 mg/kg
Activity (Mus musculus [5]): inactive
Activity (Mus musculus [6]): inactive
Activity (Mus musculus [7]): inactive

O=C(CCCN1C(=O)c2ccccc2C1=O)Nc1ccccc1
MTD at 4 h [18]: 100 mg/kg
Activity (Mus musculus [9]): Non-toxic
Activity (Mus musculus [1]): inactive
Activity (Mus musculus [2]): inactive
Activity (Mus musculus [3]): inactive
Activity (Mus musculus [4]): inactive
Activity (Mus musculus [5]): inactive
Activity (Mus musculus [6]): inactive
minimal effective dose (Mus musculus [15]): 300 mg/kg

Cc1cc(Cl)ccc1NC(=O)CCCN1C(=O)c2ccccc2C1=O
Activity (Mus musculus [8]): Non-toxic
Activity (Mus musculus [9]): Non-toxic
minimal effective dose (Mus musculus [10]): 300 mg/kg
minimal effective dose (Mus musculus [11]): 100 mg/kg
Activity (Mus musculus [3]): inactive
minimal effective dose (Mus musculus [16]): 300 mg/kg
minimal effective dose (Mus musculus [13]): 300 mg/kg
minimal effective dose (Mus musculus [14]): 100 mg/kg
Activity (Mus musculus [7]): inactive

O=C(CCCN1C(=O)c2ccccc2C1=O)Nc1ccc([N+](=O)[O-])cc1
MTD at 4 h [18]: 100 mg/kg
MTD at 0.5 h [17]: 100 mg/kg
Activity (Mus musculus [1]): inactive
Activity (Mus musculus [2]): inactive
Activity (Mus musculus [3]): inactive
Activity (Mus musculus [4]): inactive
Activity (Mus musculus [5]): inactive
Activity (Mus musculus [6]): inactive
Activity (Mus musculus [7]): inactive

COc1ccc(NC(=O)CCCN2C(=O)c3ccccc3C2=O)cc1
Activity (Mus musculus [8]): Non-toxic
Activity (Mus musculus [9]): Non-toxic
Activity (Mus musculus [1]): inactive
minimal effective dose (Mus musculus [11]): 300 mg/kg
Activity (Mus musculus [3]): inactive
Activity (Mus musculus [4]): inactive
Activity (Mus musculus [5]): inactive
Activity (Mus musculus [6]): inactive
Activity (Mus musculus [7]): inactive

O=C(CCCN1C(=O)c2ccccc2C1=O)Nc1ccc(Cl)cc1I
Activity (Mus musculus [8]): Non-toxic
MTD at 0.5 h [17]: 300 mg/kg
Activity (Mus musculus [1]): inactive
minimal effective dose (Mus musculus [11]): 300 mg/kg
Activity (Mus musculus [3]): inactive
minimal effective dose (Mus musculus [16]): 100 mg/kg
Activity (Mus musculus [5]): inactive
Activity (Mus musculus [6]): inactive
Activity (Mus musculus [7]): inactive

O=C(CCCN1C(=O)c2ccccc2C1=O)Nc1ccc(Cl)cc1Cl
Activity (Mus musculus [8]): Non-toxic
Activity (Mus musculus [9]): Non-toxic
Activity (Mus musculus [1]): inactive
minimal effective dose (Mus musculus [11]): 300 mg/kg
Activity (Mus musculus [3]): inactive
Activity (Mus musculus [4]): inactive
minimal effective dose (Mus musculus [16]): 300 mg/kg
Activity (Mus musculus [5]): inactive
Activity (Mus musculus [6]): inactive
Activity (Mus musculus [7]): inactive
